Measurements as given in patent publication US20040198673A1, “Composition for epigallocatechin gallate” (priority 2001, published 2004).

Assay: Agway test of powder flowability (glass funnel, 11-mm opening)
Format: physicochemical
Conditions: 100 g, 11-mm funnel opening
Description: Granulated EGCG was compared with EGCG powder (the starting material for granulation) for powder flowability using the Agway test. In that test, flowability is determined by placing 100 gram of the granules in a glass funnel with a 11-mm opening, which is sealed temporarily. The measurement is started by releasing the seal. Flowability is determined as the time for the entire powder to flow through the funnel in seconds per 100 g of granule.

Powder flowability (result in words): did not flow
Substance: (−)-epigallocatechin gallate [EGCG powder]
